Reference: patent US12492337B2, “Fluorescent probe, preparation method therefor and use thereof” (FLUORESCENCE DIAGNOSIS (SHANGHAI) BIOTECH COMPANY, priority 2017, dated 2025)

Assays:
HaloTag protein tag = assay: Probe mixed with HaloTag protein tag, fluorescence spectrophotometer (Example 86); assay type: biochemical; details: 5 μM probe, 10 μM protein tag, 37° C., 1 hour; for Fluorescence enhancement: fluorescence activation multiple after binding protein tag; for Emission/nm: fluorescence emission wavelength
Procedure: (§1) A probe was mixed with a corresponding HaloTag protein tag to obtain a mixed sample. The final concentration of the probe in the mixed sample was 5 μM and the final concentration of the protein tag was 10 μM. The mixed sample was incubated at 37° C. for 1 hour, and the sample was detected using a fluorescence spectrophotometer.

[1] = Viscosity responsiveness: fluorescence intensity in glycerol versus methanol; assay type: physicochemical; details: fluorescence intensity in glycerol to that in methanol
Procedure: The above-mentioned viscosity-responsive fluorescent dye means that the fluorescence intensity of the dye responds to the viscosity of the solution. As the viscosity of the solution increases, the fluorescence intensity increases. Optionally, the viscosity-responsive fluorescent dye is an organic dye molecule which, under the same concentration and excitation wavelength, at 25° C. has a ratio • of the maximum fluorescence emission intensity of the dye in glycerol to the fluorescence intensity in methanol of greater than 2, optionally greater than 5, optionally greater than 10. The concentration of the viscosity-responsive dye ranges from 1×10^−7 M to 1×10^−5 M.

[2] = Quantum yield of free probe not reacted with protein tag; assay type: physicochemical
Procedure: as §1

The quantum yield after binding to Halo-tag (HaloTag protein tag)	Emission/nm (HaloTag protein tag)	ratio [1]	The quantum yield of the free probe [2]	SMILES	Fluorescence enhancement (HaloTag protein tag)
0.53	550 nm	386	<0.001	CNc1ccc2cc(/C=C(\C#N)C(=O)NCCOCCOCCCCCCCl)sc2c1 [Probe 66]	512
0.48	580 nm	276	<0.001	CN(C)c1ccc2cc(/C=C(\C#N)C(=O)NCCCCCCCl)sc2c1 [Probe 67]	576
0.50	580 nm	381	<0.001	CN(C)c1ccc2cc(/C=C(\C#N)C(=O)NCCOCCCl)sc2c1 [Probe 68]	681
0.61	620 nm	321	0.0028	CN(C)c1ccc2nc(/C=C(\C#N)C(=O)NCCOCCOCCCCCCCl)sc2c1 [Probe 71]	475
0.47	640 nm	268	0.001	CN(C)c1ccc2nc(/C=C(\C#N)C(=O)OCCOCCOCCCCCCCl)sc2c1 [Probe 72]	486
0.41	660 nm	452	<0.001	CN(C)c1cc2c(s1)-c1sc(/C=C3\SC(=O)N(CCOCCOCCCCCCCl)C3=O)cc1C2(C)C [Probe 78]	369
0.51	725 nm	498	<0.001	CN(C)c1cc2c(s1)-c1sc(/C=C3\SC(=S)N(CCOCCOCCCCCCCl)C3=O)cc1C2(C)C [Probe 79]	419
0.40	743 nm	521	<0.001	CN(C)c1ccc(-c2ccc(/C=C3\SC(=O)N(CCOCCOCCCCCCCl)C3=O)s2)s1 [Probe 81]	563
0.47	680 nm	522	<0.001	CN(C)c1ccc(-c2ccc(/C=C(\C#N)C(=S)NCCOCCOCCCCCCCl)s2)s1 [Probe 84]	431
0.52	550 nm	470	0.0012	CN(C)c1ccc2c(c1)C(C)(C)c1cc(/C=C(\C#N)C(=O)NCCOCCOCCCCCCCl)sc1-2 [Probe 86]	618

SMILES	The quantum yield after binding to Halo-tag (HaloTag protein tag)	Emission/nm (HaloTag protein tag)	ratio [1]	The quantum yield of the free probe [2]	Fluorescence enhancement (HaloTag protein tag)
CN(C)c1cc2c(s1)-c1sc(/C=C(\C#N)C(=S)NCCOCCOCCCCCCCl)cc1[Si]2(C)C [Probe 83]	0.53	680 nm	652	<0.001	456
